Results published in patent US7534558B2, “In vitro diagnostic test for enterovirus infections” (Universite de Lille 2 Droit Et Sante, priority 2003, dated 2009).

Assays:
Assay type in all cases: cell-based, human
IFNα production by PBMCs = IFNα production by PBMCs with VP4 protein alone (control wells); details: no virus, no plasma
Experimental: (§1) PBMCs separated from whole heparinated blood are distributed into microwells (plate of 96 wells), at the rate of 5 to 8.10^5 cell in 100 μl of supplemented RPMI medium by well. The infection of PBMC is made with a final volume of 100 μl of preparation in each well. After incubation for 48 h at 37° C. under a 5% CO2 atmosphere and 90% humidity, the supernatant is harvested and used immediately for IFNα dosage, or clarified by centrifugation for 10 minutes at 180×g and stored at −80° C. until dosage of the produced IFNα.
(§2) The concentration of the produced IFNα is determined with a sensitive and specific technique, the DELFIA method (Dissociation Enhanced Lanthanide FluoroImmmoAssay) (Rönnblom and al 1997).
(§3) The dosage of IFNα is performed following the DELFIA principle (Dissociation Enhanced Lanthanide FluoroImmunoAssay), based on a immunofluorescence in retarded phase method using antibodies binding IFNα of which one is labelled with europium. The use of an activation solution will release the europium conjugated with antibodies and emit a fluorescence proportional to the amount of produced IFNα and measured with a fluorometer (fluorometer LKB Wallac 1230 ARCOSO®, Turku, Finlande).
(§4) Monoclonal anti-IFNα antibodies LT 273 (5.4 mg/ml) and LT 293 (4.8 mg/ml) supplied by Dr Gunar Alm (Uppsala, Sweden) are coated to the bottom of the wells after an incubation for 12 hours at room temperature. […]

[1] = tested on: CVB3/plasma induced IFNα production by PBMCs; experiment: CVB3/plasma induced IFNα production by PBMCs (DELFIA); details: CVB3 infection of PBMCs; healthy donor plasma preincubated 1 h with the VP4 protein before CVB3; 48 h; positive control 323 IU/ml
Experimental: VP4, H antigen or mock proteins were preincubated for 1 h at 37° C. at different concentrations with plasma from 5 healthy subjects diluted at optimal dilution (1/10 or 1/100 ). CVB3 or CVB4 were then added for 1 hour before incubating with PBMCs. […] On the contrary, the mock proteins isolated from non-infected Hep-2 cells have non effect on the IFNα production.
PBMCs separated from whole heparinated blood are distributed into microwells (plate of 96 wells), at the rate of 5 to 8.10^5 cell in 100 μl of supplemented RPMI medium by well. The infection of PBMC is made with a final volume of 100 μl of preparation in each well. […]
as §2
as §3, with “Finlande). […]” for “Finlande).”

[2] = tested on: different CVB serotypes (CVB1 to CVB6)/plasma induced IFNα production by PBMCs; experiment: IFNα production during infection of PBMCs by different CVB serotypes in presence of plasma preincubated with VP4-CVB4E2; details: plasma 1/10 preincubated 1 h with VP4 recombinant protein of CVB4E2 diluted 1/10
Experimental: as §1, §2, §3, §4

recombinant VP4 protein: recombinant VP4 protein of CVB4E2, made in E. coli as MBP-VP4 fusion and cleaved by Factor Xa
IFNα production by PBMCs, protein alone (IFNα production by PBMCs): do not lead to the IFNα production | IFNα production [1]: 308 IU/ml | IFNα production with CVB serotypes other than CVB4E2 [2]: remains high and stable
